Experimental data from PubChem BioAssay AID1918996 (Molecular Pharmacology Branch, DTP, NCI, 2023).

Tested on: 349418-098-R-PDC complex spheroid growth
Assay: Anticancer human tumor 349418-098-R-PDC patient-derived lung adenocarcinoma cell line growth inhibition [AhR]
Settings: for IC50: curve of first compound; for viability, T/C: stronger effect = lower value; active = viability on the fitted dose curve at most 10% of control; inactive = the rest
Description: Multicellular complex tumor spheroid response to aryl hydrocarbon receptor antagonists in combination with a variety of drugs and investigational agents in selected tumor cell lines
The current study was undertaken to assess response to aryl hydrocarbon receptor antagonists in combination with standard-of-care drugs and investigational agents in solid tumor complex spheroid models. Complex spheroids include a stromal component modeled by human endothelial cells (HUVEC) and fibroblasts modeled by human mesenchymal stem cells (MSCs). The concentration ranges selected for each drug and investigational agent were based upon clinically achievable concentrations if the clinical Cmax of the agent was known.
Compounds. The drugs and investigational agents: BAY 2416964 (NSC825713), GNF351 (NSC835774), CH-223191 (NSC835775), CPI-455 (NSC825282), aza-TdCyd (NSC777586), decitabine (NSC127716), belinostat (NSC758774), entinostat (NSC756642), pevonedistat (NSC761192), tazemetostat (NSC777109), talazoparib (NSC765396), olaparib (NSC753686), selinexor (NSC780203), nedisertib (M3814, NSC802822), bortezomib (NSC756655), venetoclax (NSC766270), doxorubicin (NSC123127), elimusertib (BAY189344, NSC800525), ceralasertib (AZD6738, NSC777638), TAK-243 (NSC785004), alisertib (NSC759677), etoposide (NSC141540), topotecan (NSC609699), eribulin (NSC707389), gemcitabine (NSC613327), carboplatin (NSC241240), cisplatin (NSC119875), and SN-38 (NSC673596) were obtained from the National Cancer Institute (NCI) Developmental Therapeutics Program Chemical Repository (32). The FDA-approved anticancer drug set is available from the Developmental Therapeutics Program at https://dtp.cancer.gov/organization/dscb/obtaining/available plates.htm. […] The stock solutions were prepared in dimethyl sulfoxide (DMSO, Sigma-Aldrich, St. Louis, MO, cat. D2650), except for the platinum compounds which were prepared in saline (Quality Biological, Gaithersburg, MD, cat. 114-055-101), at 800-fold the tested concentration and stored at -70 degrees C prior to their use. All drugs and investigational agents were tested over a range starting from a high concentration at or near the clinical Cmax and decreasing in half-log increments. If the clinical Cmax for an agent had not been determined, the highest concentration tested was 10 microM (Table 1).
Cell Culture. All cells were maintained in an incubator at 37 degrees C and 5% CO2 with 95% humidity. The PDC lines were cultured according to standard operating procedures established by the NCI PDMR (https://pdmr.cancer.gov). Briefly, all PDCs were thawed and cultured in Matrigel-coated flasks prepared with a working solution of 1X Ham's F-12 nutrient mix, without supplementation (Invitrogen, Waltham, MA, cat. 11765054), 100 U/mL penicillin-streptomycin (Invitrogen, cat. 15140122), and 2.5% Matrigel (Corning Inc., Corning, NY, cat. 354248) for the first three passages. All PDCs were cultured in complete DMEM/F-12 media containing advanced DMEM/F-12 (Invitrogen, cat. 12634028), 4.9% defined fetal bovine serum, heat inactivated (HyClone Laboratories Inc., Logan, UT, cat. SH30070.03HI), 389 ng/mL hydrocortisone (Sigma-Aldrich, cat. H4001), 9.7 ng/mL human EGF recombinant protein (Invitrogen, cat. PHG0313), 23.4 microg/mL adenine (Sigma-Aldrich, cat. A2786), 97.3 U/mL penicillin-streptomycin (Invitrogen, cat. 15140122), 1.9 mM L-glutamine (Invitrogen, cat. 25030081), and 9.7 microM Y-27632 dihydrochloride (Tocris Bioscience, Bristol, United Kingdom, cat. 1254). The PDCs were cultured in complete DMEM/F12 media without 10 microM Y-27632 dihydrochloride for at least two passages prior to the screen. The established cell lines NCI-H1341 and […] were cultured in DMEM/F-12, HEPES (Invitrogen, cat. 11330032), 5% defined fetal bovine serum (HyClone Laboratories Inc., cat. SH30070.03), ITS premix universal culture supplement [insulin (5 microg/mL), transferrin (5 microg/mL), and selenious acid (5 ng/mL)] […]

[1] = second compound 0.1 µM, first compound 0.00316 µM
[2] = second compound 0.1 µM, first compound 0.01 µM
[3] = second compound 0.1 µM, first compound 0.0316 µM
[4] = second compound 0.1 µM, first compound 0.1 µM
[5] = second compound 0.316 µM, first compound 0.00316 µM
[6] = second compound 0.316 µM, first compound 0.01 µM
[7] = second compound 0.316 µM, first compound 0.0316 µM
[8] = second compound 0.316 µM, first compound 0.1 µM
[9] = second compound 1 µM, first compound 0.00316 µM
[10] = second compound 1 µM, first compound 0.01 µM
[11] = second compound 1 µM, first compound 0.0316 µM
[12] = second compound 1 µM, first compound 0.1 µM
[13] = second compound 3.16 µM, first compound 0.00316 µM
[14] = second compound 3.16 µM, first compound 0.01 µM
[15] = second compound 3.16 µM, first compound 0.0316 µM
[16] = second compound 3.16 µM, first compound 0.1 µM
[17] = second compound 10 µM, first compound 0.00316 µM
[18] = second compound 10 µM, first compound 0.01 µM
[19] = second compound 10 µM, first compound 0.0316 µM
[20] = second compound 10 µM, first compound 0.1 µM
[21] = second compound 0.1 µM, first compound 0.316 µM
[22] = second compound 0.1 µM, first compound 1 µM
[23] = second compound 0.1 µM, first compound 3.16 µM
[24] = second compound 0.1 µM, first compound 10 µM
[25] = second compound 0.316 µM, first compound 0.316 µM
[26] = second compound 0.316 µM, first compound 1 µM
[27] = second compound 0.316 µM, first compound 3.16 µM
[28] = second compound 0.316 µM, first compound 10 µM
[29] = second compound 1 µM, first compound 0.316 µM
[30] = second compound 1 µM, first compound 1 µM
[31] = second compound 1 µM, first compound 3.16 µM
[32] = second compound 1 µM, first compound 10 µM
[33] = second compound 3.16 µM, first compound 0.316 µM
[34] = second compound 3.16 µM, first compound 1 µM
[35] = second compound 3.16 µM, first compound 3.16 µM
[36] = second compound 3.16 µM, first compound 10 µM
[37] = second compound 10 µM, first compound 0.316 µM
[38] = second compound 10 µM, first compound 1 µM
[39] = second compound 10 µM, first compound 3.16 µM
[40] = second compound 10 µM, first compound 10 µM
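Note: spheroids exposed to agents for seven days before luminescence viability read.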
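Throughout, for viability, T/C: spheroids also contain HUVEC endothelial cells and human MSC stroma.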

CC[C@@]1(O)C(=O)OCc2c1cc1n(c2=O)Cc2cc3c(CN(C)C)c(O)ccc3nc2-1 + CC(CO)NC(=O)c1cc(-c2ccc(Cl)cc2)nn(-c2cnn(C)c2)c1=O
16.9 nM: IC50 (second compound 0.316 µM)
24.6 nM: IC50 (second compound 0.1 µM)
3.67 nM: IC50 (second compound 10 µM)
10.6 nM: IC50 (second compound 1 µM)
inactive: viability, T/C (second compound 0.1 µM, first compound 0.000316 µM) 90% | viability, T/C (second compound 0.1 µM, first compound 0.001 µM) 115% | viability, T/C [1] 97.5% | viability, T/C [2] 75.7% | viability, T/C [3] 43.9% | viability, T/C [4] 16.2% | viability, T/C (second compound 0.316 µM, first compound 0.000316 µM) 136% | viability, T/C (second compound 0.316 µM, first compound 0.001 µM) 118% | viability, T/C [5] 87.8% | viability, T/C [6] 60.9% | viability, T/C [7] 37.7% | viability, T/C [8] 12.8% | viability, T/C (second compound 1 µM, first compound 0.000316 µM) 118% | viability, T/C (second compound 1 µM, first compound 0.001 µM) 136% | viability, T/C [9] 72.4% | viability, T/C [10] 57.8% | viability, T/C [11] 29.3% | viability, T/C [12] 12.8% | viability, T/C (second compound 3.16 µM, first compound 0.000316 µM) 92.9% | viability, T/C (second compound 3.16 µM, first compound 0.001 µM) 93.2% | viability, T/C [13] 83.4% | viability, T/C [14] 56.3% | viability, T/C [15] 21.9% | viability, T/C [16] 12.4% | viability, T/C (second compound 10 µM, first compound 0.000316 µM) 51.1% | viability, T/C (second compound 10 µM, first compound 0.001 µM) 65% | viability, T/C [17] 51.3% | viability, T/C [18] 35% | viability, T/C [19] 23.1% | viability, T/C [20] 13.6%
12.2 nM: IC50 (second compound 3.16 µM)

COc1cc(C2c3cc4c(cc3C(OC3OC5COC(C)OC5C(O)C3O)C3COC(=O)C23)OCO4)cc(OC)c1O (stereo not given) + CC(CO)NC(=O)c1cc(-c2ccc(Cl)cc2)nn(-c2cnn(C)c2)c1=O
inactive: viability, T/C [3] 103% | viability, T/C [4] 98% | viability, T/C [21] 91.1% | viability, T/C [22] 34.1% | viability, T/C [23] 18% | viability, T/C [24] 12.9% | viability, T/C [7] 108% | viability, T/C [8] 109% | viability, T/C [25] 72.4% | viability, T/C [26] 32.6% | viability, T/C [27] 16.2% | viability, T/C [28] 11.3% | viability, T/C [11] 102% | viability, T/C [12] 90.2% | viability, T/C [29] 64.5% | viability, T/C [30] 29% | viability, T/C [31] 18.7% | viability, T/C [32] 14.6% | viability, T/C [15] 78.8% | viability, T/C [16] 104% | viability, T/C [33] 43.2% | viability, T/C [34] 25.1% | viability, T/C [35] 16.6% | viability, T/C [36] 13.5% | viability, T/C [19] 59% | viability, T/C [20] 56.4% | viability, T/C [37] 36% | viability, T/C [38] 22.3% | viability, T/C [39] 14.4% | viability, T/C [40] 14.1%
607 nM: IC50 (second compound 0.316 µM)
727 nM: IC50 (second compound 0.1 µM)
136 nM: IC50 (second compound 10 µM)
269 nM: IC50 (second compound 3.16 µM)
503 nM: IC50 (second compound 1 µM)

COc1cccc2c1C(=O)c1c(O)c3c(c(O)c1C2=O)CC(O)(C(=O)CO)CC3OC1CC(N)C(O)C(C)O1 (stereo not given) + CC(CO)NC(=O)c1cc(-c2ccc(Cl)cc2)nn(-c2cnn(C)c2)c1=O
active: viability, T/C [21] 3.76% | viability, T/C [22] 0.59% | viability, T/C [23] 2.28% | viability, T/C [24] 5.15% | viability, T/C [25] 3.63% | viability, T/C [26] 0.47% | viability, T/C [27] 3.14% | viability, T/C [28] 5.48% | viability, T/C [29] 3.05% | viability, T/C [30] 0.52% | viability, T/C [31] 3.58% | viability, T/C [32] 5.75% | viability, T/C [33] 2.92% | viability, T/C [34] 0.71% | viability, T/C [35] 2.73% | viability, T/C [36] 5.34% | viability, T/C [20] 12.3% | viability, T/C [37] 1.49% | viability, T/C [38] 1.33% | viability, T/C [39] 3.87% | viability, T/C [40] 6.78%
inactive: viability, T/C [3] 21.8% | viability, T/C [4] 13.4% | viability, T/C [7] 26.6% | viability, T/C [8] 13.2% | viability, T/C [11] 25% | viability, T/C [12] 14.7% | viability, T/C [15] 19.6% | viability, T/C [16] 14.4% | viability, T/C [19] 18.5%
< 31.6 nM: IC50 (second compound 0.1 µM) | IC50 (second compound 0.316 µM) | IC50 (second compound 1 µM) | IC50 (second compound 3.16 µM) | IC50 (second compound 10 µM)

Nc1ncn(C2CC(O)C(CO)O2)c(=O)n1 (stereo not given) + CC(CO)NC(=O)c1cc(-c2ccc(Cl)cc2)nn(-c2cnn(C)c2)c1=O
135 nM: IC50 (second compound 0.1 µM)
103 nM: IC50 (second compound 3.16 µM)
63.3 nM: IC50 (second compound 0.316 µM)
44.6 nM: IC50 (second compound 10 µM)
92.2 nM: IC50 (second compound 1 µM)
inactive: viability, T/C [1] 101% | viability, T/C [2] 90.6% | viability, T/C [3] 73.4% | viability, T/C [4] 55.2% | viability, T/C [21] 36.6% | viability, T/C [22] 23.8% | viability, T/C [5] 108% | viability, T/C [6] 106% | viability, T/C [7] 72% | viability, T/C [8] 35% | viability, T/C [25] 43.1% | viability, T/C [26] 25.7% | viability, T/C [9] 78.6% | viability, T/C [10] 67.3% | viability, T/C [11] 67.9% | viability, T/C [12] 41.6% | viability, T/C [29] 43.3% | viability, T/C [30] 28.9% | viability, T/C [13] 55.4% | viability, T/C [14] 64.9% | viability, T/C [15] 84.4% | viability, T/C [16] 50.6% | viability, T/C [33] 30% | viability, T/C [34] 26.8% | viability, T/C [17] 51.9% | viability, T/C [18] 63.9% | viability, T/C [19] 49.8% | viability, T/C [20] 43.2% | viability, T/C [37] 24.8% | viability, T/C [38] 20.1%
